The target in one series is CYP2C19 (Homo sapiens, UniProt P33261). The experiment in a line: in vitro. The following applies: E. coli expressed CYP2C19, pH 7.4, probe CEC 25 μM.
Series [1] has as its target T1, CYP3A4 (Homo sapiens, UniProt P08684). Put plainly: CYP450 inhibition CDNA-CYP3A4-BQ. The conditions noted are these: human, E. coli expressed CYP3A4, pH 7.4, probe BQ 60 μM. An excerpt:
(§1) Assay 4: CYP450 Inhibition

For series [2], the system named is wild-type HIV-1IIIB strain. Put plainly: Antiviral activity, MT4 LTR-EGFP cellular assay. Type of series: cell-based. The following applies: read-out: Antiviral activity IIIB (pEC50) (converted). The protocol:
(§2) Assay 1 &2: Antiviral Activity/Toxicity
The compounds of the present invention were tested for antiviral activity in a cellular assay, which was performed according to the following procedure.
The human T-cell line MT4 is engineered with Green Fluorescent Protein (GFP) and an HIV-specific promoter, HIV-1 long terminal repeat (LTR). This cell line is designated MT4 LTR-EGFP, and can be used for the in vitro evaluation of anti-HIV activity of investigational compounds. In HIV-1 infected cells, the Tat protein is produced which upregulates the LTR promotor and finally leads to stimulation of the GFP reporter production, allowing measuring ongoing HIV-infection fluorometrically.
(§3) The ratio of CC50 to EC50 is defined as the selectivity index (SI) and is an indication of the selectivity of the anti-HIV activity of the inhibitor. The ultimate monitoring of HIV-1 infection and cytotoxicity is done using a scanning microscope. Image analysis allows very sensitive detection of viral infection. Measurements are done before cell necrosis, which usually takes place about five days after infection, in particular measurements are performed three days after infection.
(§4) A pEC50 value corresponds to −log10(EC50). A pCC50 value corresponds to −log10(CC50).

The target in a further series is CYP2C9 (Homo sapiens, UniProt P11712). Put plainly: in vitro. The following applies: human, pH 7.4.
CYP2C9, sequence (P11712 whole entry): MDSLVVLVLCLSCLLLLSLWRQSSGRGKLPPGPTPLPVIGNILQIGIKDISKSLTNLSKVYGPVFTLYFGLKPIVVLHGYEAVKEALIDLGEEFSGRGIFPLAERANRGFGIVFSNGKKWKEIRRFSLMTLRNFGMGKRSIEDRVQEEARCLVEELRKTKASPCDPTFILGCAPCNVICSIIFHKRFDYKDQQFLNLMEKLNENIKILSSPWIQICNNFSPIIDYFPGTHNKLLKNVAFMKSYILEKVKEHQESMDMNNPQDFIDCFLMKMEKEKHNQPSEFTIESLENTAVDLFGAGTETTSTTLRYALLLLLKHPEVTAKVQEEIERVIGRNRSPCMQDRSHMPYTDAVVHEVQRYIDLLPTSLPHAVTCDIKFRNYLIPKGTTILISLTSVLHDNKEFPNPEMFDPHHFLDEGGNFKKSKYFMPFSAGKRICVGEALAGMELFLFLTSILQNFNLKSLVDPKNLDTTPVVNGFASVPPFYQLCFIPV
Text: as §1

The target of series [3] is T1, CYP3A4. Put plainly: in vitro. The conditions noted are these: human, pH 7.4.
Text: as §1

For the next series, the target named is CYP2D6 (Homo sapiens, UniProt P10635). The experiment in a line: in vitro. The conditions noted are these: pH 7.4.
CYP2D6, sequence (P10635 whole entry): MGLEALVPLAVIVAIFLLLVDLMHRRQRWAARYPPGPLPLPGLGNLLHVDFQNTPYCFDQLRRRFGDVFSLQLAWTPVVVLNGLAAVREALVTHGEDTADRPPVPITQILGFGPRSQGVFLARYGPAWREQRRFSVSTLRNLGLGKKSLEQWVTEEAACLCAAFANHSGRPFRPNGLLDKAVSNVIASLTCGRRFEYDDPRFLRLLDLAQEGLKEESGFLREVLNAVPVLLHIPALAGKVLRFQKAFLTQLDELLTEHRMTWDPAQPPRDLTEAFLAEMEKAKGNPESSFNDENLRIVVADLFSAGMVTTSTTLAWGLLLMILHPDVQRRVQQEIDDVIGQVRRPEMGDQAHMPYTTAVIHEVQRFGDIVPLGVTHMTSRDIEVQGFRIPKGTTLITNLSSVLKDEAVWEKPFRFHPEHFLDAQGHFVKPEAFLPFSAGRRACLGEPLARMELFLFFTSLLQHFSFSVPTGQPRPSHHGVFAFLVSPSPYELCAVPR
The nature of series [4]: Toxicity, mock-infected MT4 CMV-EGFP cells. Type of series: cell-based, human. The conditions noted are these: human; for CC50 at 3 days: mock-infected MT4 CMV-EGFP cells, read-out: Toxicity MT4 (pCC50) (converted).
Text: as §2
Analogously, MT4 cells are engineered with GFP and the constitutional cytomegalovirus (CMV) promotor. […] Cytotoxic investigational compounds reduce GFP levels of mock-infected MT4 CMV-EGFP cells.
as §3, §4

Series [5] deals with T1, CYP3A4. The experiment in a line: CYP450 inhibition CDNA-CYP3A4-BFC. The conditions noted are these: human, E. coli expressed CYP3A4, pH 7.4, probe BFC 150 μM.
Text: as §1

Another series concerns the target T2, CYP1A2 (Homo sapiens, UniProt P05177).
T2 sequence (P05177 1-516): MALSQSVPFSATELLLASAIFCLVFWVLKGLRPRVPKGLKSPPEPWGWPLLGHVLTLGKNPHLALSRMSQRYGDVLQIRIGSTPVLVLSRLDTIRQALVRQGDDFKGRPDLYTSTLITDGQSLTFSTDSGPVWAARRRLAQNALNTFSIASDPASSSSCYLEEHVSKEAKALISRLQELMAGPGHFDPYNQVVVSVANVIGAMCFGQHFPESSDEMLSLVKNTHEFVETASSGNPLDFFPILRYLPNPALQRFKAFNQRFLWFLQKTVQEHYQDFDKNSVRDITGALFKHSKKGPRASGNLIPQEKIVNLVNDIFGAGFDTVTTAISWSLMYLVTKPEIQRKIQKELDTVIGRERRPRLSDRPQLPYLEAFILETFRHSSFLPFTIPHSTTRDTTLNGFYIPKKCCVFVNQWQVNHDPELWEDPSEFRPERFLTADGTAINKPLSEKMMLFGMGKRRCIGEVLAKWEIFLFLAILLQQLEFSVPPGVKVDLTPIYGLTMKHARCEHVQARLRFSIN
Put plainly: in vitro. The following applies: E. coli expressed CYP1A2, pH 7.4, probe CEC 5 μM.

Series [6] can be described thus: Metabolic stability of test compounds (HLM15'). Type of series: in vitro ADME, human. The conditions noted are these: pH 7.4; human liver microsomes 1 mg/ml, 5 μM test compound, 15 min; read-out: Metabolic stability (HLM, % recovery after 15'). The text has this: Human liver tissue is rinsed in ice-cold 0.1 M Tris-HCl (pH 7.4) buffer to wash excess blood. Tissue is then blotted dry, weighed and chopped coarsely using surgical scissors. The tissue pieces are homogenized in 3 volumes of ice-cold 0.1 M phosphate buffer (pH 7.4) using either a Potter-S (Braun, Italy) equipped with a Teflon pestle or a Sorvall Omni-Mix homogenizer, for 7×10 sec. In both cases, the vessel is kept in/on ice during the homogenization process. Tissue homogenates are centrifuged at 9000×g for 20 min at 4° C. using a Sorvall centrifuge or Beckman Ultracentrifuge. The resulting supernatant can be stored at −80° C. and is designated ‘S9’. The S9 fraction is centrifuged at 100,000×g for 60 min at 4° C. using a Beckman ultracentrifuge. The resulting supernatant is carefully aspirated, aliquoted and designated ‘cytosol’. The pellet is re-suspended in 0.1 M phosphate buffer (pH 7.4) in a final volume of 1 ml per 0.5 g original tissue weight and designated ‘microsomes’. All sub-cellular fractions are aliquoted, immediately frozen in liquid nitrogen and stored at −80° C. until use.
Heat-inactivated (10 min at 95° C.) ‘S9’ or microsomes were used for blank experiments. […] The reaction was incubated for 0 or 15 min. Next, the reaction was stopped by addition of 2 volumes of DMSO (or acetonitrile). Samples were centrifuged (10 min, 900×g) and analyzed by LC-MS.
(In general: Liver microsomes are a subcellular fraction often used to study metabolism.)

Where [7] appears, read: Human immunodeficiency virus 1, 72 h, wild-type HIV-1 IIIB, MT4 LTR-EGFP cells, three days after infection.

SMILES strings stand for the structures. Read-outs that look alike come from different tables or passages of the source.

T1 sequence (P08684 whole entry): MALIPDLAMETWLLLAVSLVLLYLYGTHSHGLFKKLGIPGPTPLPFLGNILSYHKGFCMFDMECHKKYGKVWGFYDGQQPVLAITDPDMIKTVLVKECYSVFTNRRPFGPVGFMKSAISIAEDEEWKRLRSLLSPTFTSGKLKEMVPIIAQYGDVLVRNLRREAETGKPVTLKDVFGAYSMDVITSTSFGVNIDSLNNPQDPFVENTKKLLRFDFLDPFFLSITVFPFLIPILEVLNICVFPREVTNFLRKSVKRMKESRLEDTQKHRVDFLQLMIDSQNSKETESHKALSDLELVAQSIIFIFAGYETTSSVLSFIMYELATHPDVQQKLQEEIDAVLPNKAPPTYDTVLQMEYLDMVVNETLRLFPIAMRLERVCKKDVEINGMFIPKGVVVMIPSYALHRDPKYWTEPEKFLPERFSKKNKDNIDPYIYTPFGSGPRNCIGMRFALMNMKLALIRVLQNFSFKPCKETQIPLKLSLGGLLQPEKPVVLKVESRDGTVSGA
CYP2C19, sequence (P33261 whole entry): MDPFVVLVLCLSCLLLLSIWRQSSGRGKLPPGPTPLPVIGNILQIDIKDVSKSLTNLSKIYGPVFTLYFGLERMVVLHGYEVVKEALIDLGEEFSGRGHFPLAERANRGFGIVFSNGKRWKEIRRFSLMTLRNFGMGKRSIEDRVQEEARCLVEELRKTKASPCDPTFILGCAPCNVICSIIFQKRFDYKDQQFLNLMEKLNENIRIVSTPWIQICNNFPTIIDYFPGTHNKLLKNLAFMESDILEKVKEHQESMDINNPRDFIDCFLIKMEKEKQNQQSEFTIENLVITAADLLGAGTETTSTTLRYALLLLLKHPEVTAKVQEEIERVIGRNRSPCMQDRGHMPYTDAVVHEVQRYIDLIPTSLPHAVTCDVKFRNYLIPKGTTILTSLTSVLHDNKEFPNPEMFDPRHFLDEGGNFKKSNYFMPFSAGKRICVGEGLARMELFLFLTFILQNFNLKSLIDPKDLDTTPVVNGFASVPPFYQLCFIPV
Method for CYP1A2: (§5) Inhibition of the metabolism of test compounds by different CYP P450 isoenzymes was determined using E. coli expressed proteins (3A4, 2C9, 2D6, 1A2, and 2C19) that convert their specific substrates into a fluorescent molecule (Table 6). This fluorescent molecule was measured using a fluorescent plate reader (Victor2 (Wallac) or Fluoroskan (Labsystems)). […] CYP P450 enzymes were prepared in house or commercially bought and stored at −80° C.
(§6) The assay was performed in black 96 well Costar plates. Test compounds were added to a CYP P450 enzyme solution in the presence of an NADPH generating system. After 5 min of preincubation at 37° C., the freshly prepared, phosphate buffered (pH 7.4) substrate solution was added. Known CYP P450 inhibitors were used as positive controls, negative controls were run without CYP P450 enzyme. […] Reaction mixtures were incubated at 37° C. for 30 min (CYP3A4-BFC), 30 min (CYP3A4-BQ), 10 min (CYP3A4-DBF), 15 min (CYP1A2-CEC), 30 min (CYP2C9-MFC, CYP2C19-CEC), or 45 min (CYP2D6-AMMC), respectively. Then, the reaction was stopped by the addition of 200 μl acetonitrile, and the fluorescent signal was detected.
(§7) Calculation of CYP P450 isoenzyme inhibition (% inh.):
(§8) % activity=(100/(average positive control−average negative control))×(average sample−average negative control)
Method for CYP2C19: as §5, §6, §7, §8
Method for CYP2D6: as §5, §6, §7, §8

For `CCc1nc2ccc(C(=O)N(CC(C)C)C[C@@H](O)[C@H](Cc3ccccc3)NC(=O)OCc3cncs3)cc2o1` [Compound C39, Thiazol-5-ylmethyl (2S,3R)-4-(2-ethyl-N-isobutylbenzo[d]oxazole-6-carboxamido)-3-hydroxy-1-phenylbutan-2-ylcarbamate], the inhibition (usually how much of the control response was suppressed) at 30 min, 10 μM on CYP2C19 was determined as 87%; at CYP3A4 [1], 77%; against CYP2C9, 95%; against CYP3A4 [5] it was 95%. Besides, the EC50 in series [2] (Human immunodeficiency virus 1, IIIB, 72 h) was 87.1 µM. In addition, the inhibition at 10 min, 10 μM at CYP3A4 [3] came out at 92%. At CYP2D6, this compound displayed an inhibition at 45 min, 10 μM of 51%. Moreover, the CC50 at 3 days in [4] was > 100 µM. Moreover, the inhibition at 15 min, 10 μM at CYP1A2 was found to be 2%.
In the case of `CC(C)CN(C[C@@H](O)[C@H](Cc1ccccc1)NC(=O)OCc1cncs1)C(=O)c1ccc2nc(N3CCN(C)CC3)oc2c1` [Compound C15, Thiazol-5-ylmethyl (2S,3R)-3-hydroxy-4-(N-isobutyl-2-(4-methylpiperazin-1-yl)benzo[d]oxazole-6-carboxamido)-1-phenylbutan-2-ylcarbamate], the inhibition at 30 min, 10 μM against CYP2C19 was found to be 67%; against CYP3A4 [1], 79%; against CYP2C9 it was 96%; on CYP3A4 [5], 98%. Moreover, the EC50 in series [2] (setting [7]) was > 100 µM. Besides, the inhibition at 10 min, 10 μM against CYP3A4 [3] was 93%. On CYP2D6, this compound showed an inhibition at 45 min, 10 μM of 97%. In series [6], the recovery at 15 min, 5 μM was determined as 25%. The CC50 at 3 days in [4] was > 100 µM. The same compound returned an inhibition at 15 min, 10 μM at CYP1A2 of 18%.
Regarding `CC(C)CN(C[C@@H](O)[C@H](Cc1ccccc1)NC(=O)OCc1cncs1)C(=O)c1ccc2ncn(C)c2c1` [Compound C8, Thiazol-5-ylmethyl (2S,3R)-3-hydroxy-4-(N-isobutyl-1-methyl-1H-benzo[d]-imidazole-6-carboxamido)-1-phenylbutan-2-ylcarbamate], the inhibition at 30 min, 10 μM amounted to 75% against CYP2C19, 72% against CYP3A4 [1], 92% against CYP2C9 and 81% at CYP3A4 [5]. Further, in series [2] (setting [7]), the EC50 was > 100 µM. The same compound displayed an inhibition at 10 min, 10 μM against CYP3A4 [3] of 93%. The inhibition at 45 min, 10 μM against CYP2D6 amounted to 12%. In series [6], the recovery at 15 min, 5 μM is 57%. Moreover, in series [4], the CC50 at 3 days is > 100 µM. The inhibition at 15 min, 10 μM on CYP1A2 was found to be 4%.
Take `CC(C)CN(C[C@@H](O)[C@H](Cc1ccccc1)NC(=O)OCc1cncs1)C(=O)c1ccc2nc(NCCN(C)C)oc2c1` [Compound C16, Thiazol-5-ylmethyl (2S,3R)-4-(2-(2-(dimethylamino)ethylamino)-N-isobutyl-benzo[d]oxazole-6-carboxamido)-3-hydroxy-1-phenylbutan-2-ylcarbamate]: the inhibition at 30 min, 10 μM at CYP2C19 was found to be 36%; against CYP3A4 [1] it was 80%; against CYP2C9, 34%; against CYP3A4 [5], 93%. The EC50 in [2] (setting [7]) was > 100 µM. Further, the inhibition at 10 min, 10 μM at CYP3A4 [3] was determined as 91%. The inhibition at 45 min, 10 μM against CYP2D6 is 89%. Also, the recovery at 15 min, 5 μM in [6] amounted to 59%. Besides, the CC50 at 3 days in series [4] was > 100 µM. The same compound returned an inhibition at 15 min, 10 μM at CYP1A2 of 0%.
For the compound `CC(C)CN(C[C@@H](O)[C@H](Cc1ccccc1)NC(=O)OCc1cncs1)C(=O)c1ccc2ncoc2c1` [Compound C38, Thiazol-5-ylmethyl (2S,3R)-3-hydroxy-4-(N-isobutylbenzo[d]oxazole-6-carboxamido)-1-phenylbutan-2-ylcarbamate], the inhibition at 30 min, 10 μM stood at 81% against CYP2C19, 76% on CYP3A4 [1], 93% against CYP2C9 and 95% on CYP3A4 [5]. In addition, in series [2] (setting [7]), the EC50 is > 100 µM. This compound gave an inhibition at 10 min, 10 μM against CYP3A4 [3] of 92%. Besides, at CYP2D6, the inhibition at 45 min, 10 μM was 77%. Besides, the recovery at 15 min, 5 μM in series [6] is 67%. For the same compound, the CC50 at 3 days in series [4] was > 100 µM. Moreover, the inhibition at 15 min, 10 μM on CYP1A2 is 7%.
For the compound `CCN(C[C@@H](O)[C@H](Cc1ccccc1)NC(=O)OCc1cncs1)C(=O)c1ccc2nc(N(C)CC)oc2c1` [Compound C29, Thiazol-5-ylmethyl (2S,3R)-4-(N-ethyl-2-(ethyl(methyl)amino)benzo[d]-oxazole-6-carboxamido)-3-hydroxy-1-phenylbutan-2-ylcarbamate], the inhibition at 30 min, 10 μM against CYP2C19 was 97%; against CYP3A4 [1], 77%; on CYP2C9, 99%; on CYP3A4 [5], 90%. Also, in series [2] (setting [7]), the EC50 is > 100 µM. Besides, the inhibition at 10 min, 10 μM against CYP3A4 [3] worked out at 94%. The inhibition at 45 min, 10 μM against CYP2D6 came to 32%. Besides, the recovery at 15 min, 5 μM in [6] came to 58%. Besides, the CC50 at 3 days in series [4] is 81.3 µM. Further, on CYP1A2, the inhibition at 15 min, 10 μM was 6%.
As to `CC(C)CN(C[C@@H](O)[C@H](Cc1ccccc1)NC(=O)OCc1cncs1)C(=O)c1ccc2nc(N3CCCCC3)oc2c1` [Compound C3, Thiazol-5-ylmethyl (2S,3R)-3-hydroxy-4-(N-isobutyl-2-(piperidin-1y1)-benzo[d]oxazole-6-carboxamido)-1-phenylbutan-2-ylcarbamate], the inhibition at 30 min, 10 μM against CYP2C19 worked out at 90%; against CYP3A4 [1], 80%; against CYP2C9, 100%; against CYP3A4 [5], 95%. In series [2] (setting [7]), the EC50 was 36.3 µM. This compound displayed an inhibition at 10 min, 10 μM on CYP3A4 [3] of 95%. This compound also had an inhibition at 45 min, 10 μM on CYP2D6 of 45%. Further, the recovery at 15 min, 5 μM in series [6] is 71%. Moreover, in series [4], the CC50 at 3 days was 32.4 µM. On CYP1A2, this compound registered an inhibition at 15 min, 10 μM of 19%.
For the compound `CCN(C)c1nc2ccc(C(=O)N(CC(C)C)C[C@@H](O)[C@H](Cc3ccc(F)cc3)NC(=O)OCc3cncs3)cc2o1` [Compound C53, Thiazol-5-ylmethyl (2S,3R)-4-(2-(ethyl(methyl)amino)-N-isobutylbenzo[d]-oxazole-6-carboxamido)-1-(4-fluorophenyl)-3-hydroxybutan-2-ylcarbamate], the inhibition at 30 min, 10 μM on CYP2C19 is 95%; on CYP2C9, 96%. Besides, the EC50 in series [2] (setting [7]) was 46.8 µM. Moreover, at CYP2D6, the inhibition at 45 min, 10 μM was found to be 61%. Further, the recovery at 15 min, 5 μM in series [6] amounted to 71%. Besides, in series [4], the CC50 was determined as 50.1 µM. In addition, the inhibition at 15 min, 10 μM at CYP1A2 worked out at 0%.

Values taken from patent US8350048B2, “Amide compounds as boosters of antivirals” (Janssen R&D Ireland, priority 2007, dated 2013).
